In brackets after ≈: the same amount, converted by molar mass.
Tests used:
U-251 = experiment: Antitumor activity against human U251 cells assessed as cell growth at 0.1 uM; type: functional; settings: read-out: Activity
RPMI-8226 = experiment: Antitumor activity against human RPMI8226 cells assessed as cell growth at 0.1 uM; type: functional; settings: read-out: Activity
PC-3 = experiment: Antitumor activity against human PC3 cells assessed as cell growth at 0.1 uM; type: functional; settings: read-out: Activity
HCT-116 = experiment: Antitumor activity against human HCT116 cells assessed as cell growth at 0.1 uM; type: functional; settings: read-out: Activity
MDA-MB-231 = experiment: Antitumor activity against human MDA-MB-231/ATCC cells assessed as cell growth at 0.1 uM; type: functional; settings: read-out: Activity
OVCAR-3 = experiment: Antitumor activity against human OVCAR3 cells assessed as cell growth at 0.1 uM; type: functional; settings: read-out: Activity
SN12C = experiment: Antitumor activity against human SN12C cells assessed as cell growth at 0.1 uM; type: functional; settings: read-out: Activity
Candida albicans = experiment: Antimicrobial activity against Candida albicans MTCC 227 assessed as growth inhibition measured after overnight incubation by broth dilution method; type: functional
Pseudomonas aeruginosa = experiment: Antimicrobial activity against Pseudomonas aeruginosa MTCC 2488 assessed as growth inhibition measured after overnight incubation by broth dilution method; type: functional
UACC-257 = experiment: Antitumor activity against human UACC257 cells assessed as cell growth at 0.1 uM; type: functional; settings: read-out: Activity
NCI-H460 = experiment: Antitumor activity against human NCI-H460 cells assessed as cell growth at 0.1 uM; type: functional; settings: read-out: Activity
OVCAR-8 = experiment: Antitumor activity against human OVCAR8 cells assessed as cell growth at 0.1 uM; type: functional; settings: read-out: Activity
[1] = Antitumor activity against human Hs 578T cells assessed as cell growth at 0.1 uM; type: functional; settings: read-out: Activity
UO-31 = experiment: Antitumor activity against human UO31 cells assessed as cell growth at 0.1 uM; type: functional; settings: read-out: Activity
HOP-92 = experiment: Antitumor activity against human HOP92 cells assessed as cell growth at 0.1 uM; type: functional; settings: read-out: Activity
SNB-75 = experiment: Antitumor activity against human SNB75 cells assessed as cell growth at 0.1 uM; type: functional; settings: read-out: Activity
SR = experiment: Antitumor activity against human SR cells assessed as cell growth at 0.1 uM; type: functional; settings: read-out: Activity
UACC-62 = experiment: Antitumor activity against human UACC62 cells assessed as cell growth at 0.1 uM; type: functional; settings: read-out: Activity
SK-MEL-2 = experiment: cells; settings: Homo sapiens, SK-MEL-2, read-out: Activity
Description: Antitumor activity against human SK-MEL-2 cells assessed as cell growth at 0.1 uM

RXF 393 = experiment: Antitumor activity against human RXF393 cells assessed as cell growth at 0.1 uM; type: functional; settings: read-out: Activity
BT-549 = experiment: Antitumor activity against human BT549 cells assessed as cell growth at 0.1 uM; type: functional; settings: read-out: Activity
NCI-H23 = experiment: Antitumor activity against human NCI-H23 cells assessed as cell growth at 0.1 uM; type: functional; settings: read-out: Activity
SK-MEL-28 = experiment: Antitumor activity against human SK-MEL-28 cells assessed as cell growth at 0.1 uM; type: functional; settings: read-out: Activity
T47D = experiment: Antitumor activity against human T47D cells assessed as cell growth at 0.1 uM; type: functional; settings: read-out: Activity
SK-MEL-5 = experiment: Antitumor activity against human SK-MEL-5 cells assessed as cell growth at 0.1 uM; type: functional; settings: read-out: Activity
COLO 205 = experiment: Antitumor activity against human COLO205 cells assessed as cell growth at 0.1 uM; type: functional; settings: read-out: Activity
Escherichia coli = experiment: Antimicrobial activity against Escherichia coli MTCC 443 assessed as growth inhibition measured after overnight incubation by broth dilution method; type: functional
LOX IMVI = experiment: Antitumor activity against human LOXIMVI cells assessed as cell growth at 0.1 uM; type: functional; settings: read-out: Activity
OVCAR-5 = experiment: Antitumor activity against human OVCAR5 cells assessed as cell growth at 0.1 uM; type: functional; settings: read-out: Activity
Malme-3M = experiment: Antitumor activity against human MALME-3M cells assessed as cell growth at 0.1 uM; type: functional; settings: read-out: Activity
Aspergillus niger = experiment: Antimicrobial activity against Aspergillus niger MTCC 282 assessed as growth inhibition measured after overnight incubation by broth dilution method; type: functional
SF-539 = experiment: Antitumor activity against human SF539 cells assessed as cell growth at 0.1 uM; type: functional; settings: read-out: Activity
KM12 = experiment: Antitumor activity against human KM12 cells assessed as cell growth at 0.1 uM; type: functional; settings: read-out: Activity
TK-10 = experiment: Antitumor activity against human TK10 cells assessed as cell growth at 0.1 uM; type: functional; settings: read-out: Activity
MOLT-4 = experiment: Antitumor activity against human MOLT4 cells assessed as cell growth at 0.1 uM; type: functional; settings: read-out: Activity
Streptococcus pyogenes = experiment: Antimicrobial activity against Streptococcus pyogenes MTCC 442 assessed as growth inhibition measured after overnight incubation by broth dilution method; type: functional
A549 = experiment: Antitumor activity against human A549/ATCC cells assessed as cell growth at 0.1 uM; type: functional; settings: read-out: Activity
HT-29 = experiment: Antitumor activity against human HT-29 cells assessed as cell growth at 0.1 uM; type: functional; settings: read-out: Activity
CAKI-1 = experiment: Antitumor activity against human CAKI-1 cells assessed as cell growth at 0.1 uM; type: functional; settings: read-out: Activity
DU-145 = experiment: Antitumor activity against human DU145 cells assessed as cell growth at 0.1 uM; type: functional; settings: read-out: Activity
IGROV-1 = experiment: Antitumor activity against human IGROV1 cells assessed as cell growth at 0.1 uM; type: functional; settings: read-out: Activity
MDA-MB-435 = experiment: Antitumor activity against human MDA-MB-435 cells assessed as cell growth at 0.1 uM; type: functional; settings: read-out: Activity
SK-OV-3 = experiment: Antitumor activity against human SKOV3 cells assessed as cell growth at 0.1 uM; type: functional; settings: read-out: Activity
MDA-MB-468 = experiment: Antitumor activity against human MDA-MB-468 cells assessed as cell growth at 0.1 uM; type: functional; settings: read-out: Activity
[2] = Antitumor activity against human EKVX cells assessed as cell growth at 0.1 uM; type: functional; settings: read-out: Activity
SW-620 = experiment: Antitumor activity against human SW620 cells assessed as cell growth at 0.1 uM; type: functional; settings: read-out: Activity
786-0 = experiment: Antitumor activity against human 786-0 cells assessed as cell growth at 0.1 uM; type: functional; settings: read-out: Activity
ACHN = experiment: Antitumor activity against human ACHN cells assessed as cell growth at 0.1 uM; type: functional; settings: read-out: Activity
SF-268 = experiment: Antitumor activity against human SF268 cells assessed as cell growth at 0.1 uM; type: functional; settings: read-out: Activity
HL-60 = experiment: Antitumor activity against human HL60(TB) cells assessed as cell growth at 0.1 uM; type: functional; settings: read-out: Activity
Aspergillus clavatus = experiment: Antimicrobial activity against Aspergillus clavatus MTCC 1323 assessed as growth inhibition measured after overnight incubation by broth dilution method; type: functional
[3] = system: Mycobacterium tuberculosis; experiment: Antitubercular activity against Mycobacterium tuberculosis H37Rv assessed as growth inhibition after 12 to 28 days by L.J. agar MIC method; type: functional
OVCAR-4 = experiment: Antitumor activity against human OVCAR4 cells assessed as cell growth at 0.1 uM; type: functional; settings: read-out: Activity
HCT-15 = experiment: Antitumor activity against human HCT15 cells assessed as cell growth at 0.1 uM; type: functional; settings: read-out: Activity
Staphylococcus aureus = experiment: Antimicrobial activity against Staphylococcus aureus MTCC 96 assessed as growth inhibition measured after overnight incubation by broth dilution method; type: functional
SF-295 = experiment: Antitumor activity against human SF295 cells assessed as cell growth at 0.1 uM; type: functional; settings: read-out: Activity
M14 = experiment: Antitumor activity against human M14 cells assessed as cell growth at 0.1 uM; type: functional; settings: read-out: Activity
[4] = Antitumor activity against human HCC2998 cells assessed as cell growth at 0.1 uM; type: functional; settings: HCC 2998, read-out: Activity
MCF7 = experiment: Antitumor activity against human MCF7 cells assessed as cell growth at 0.1 uM; type: functional; settings: read-out: Activity
A498 = experiment: Antitumor activity against human A498 cells assessed as cell growth at 0.1 uM; type: functional; settings: read-out: Activity
SNB-19 = experiment: Antitumor activity against human SNB19 cells assessed as cell growth at 0.1 uM; type: functional; settings: read-out: Activity
NCI-H522 = experiment: Antitumor activity against human NCI-H522 cells assessed as cell growth at 0.1 uM; type: functional; settings: read-out: Activity
HOP-62 = experiment: Antitumor activity against human HOP62 cells assessed as cell growth at 0.1 uM; type: functional; settings: read-out: Activity
NCI/ADR-RES = experiment: Antitumor activity against human NCI/ADR-RES cells assessed as cell growth at 0.1 uM; type: functional; settings: read-out: Activity
K562 = experiment: Antitumor activity against human K562 cells assessed as cell growth at 0.1 uM; type: functional; settings: read-out: Activity

CN1CCN(C(=O)CSc2nnc(-c3cccnc3SCc3ccccc3)o2)CC1
growth at 0.1 µM (U-251): 83.9%
growth at 0.1 µM (RPMI-8226): 61.5%
growth at 0.1 µM (PC-3): 57.4%
growth at 0.1 µM (HCT-116): 94.7%
growth at 0.1 µM (MDA-MB-231): 56.5%
growth at 0.1 µM (OVCAR-3): 92%
growth at 0.1 µM (SN12C): 64.2%
MIC (Candida albicans): 500 µg/mL (≈ 1130 µM)
MIC (Pseudomonas aeruginosa): 200 µg/mL (≈ 453 µM)
growth at 0.1 µM (UACC-257): 96.8%
growth at 0.1 µM (NCI-H460): 90.1%
growth at 0.1 µM (OVCAR-8): 97.7%
growth at 0.1 µM [1]: 93.2%
growth at 0.1 µM (UO-31): 30.9%
growth at 0.1 µM (HOP-92): 43.3%
growth at 0.1 µM (SNB-75): 83%
growth at 0.1 µM (SR): 79.8%
growth at 0.1 µM (UACC-62): 76.8%
growth at 0.1 µM (SK-MEL-2): 101%
growth at 0.1 µM (RXF 393): 89.1%
growth at 0.1 µM (BT-549): 95.4%
growth at 0.1 µM (NCI-H23): 87.6%
growth at 0.1 µM (SK-MEL-28): 107%
growth at 0.1 µM (T47D): 55.3%
growth at 0.1 µM (SK-MEL-5): 84.8%
growth at 0.1 µM (COLO 205): 110%
MIC (Escherichia coli): 100 µg/mL (≈ 226 µM)
growth at 0.1 µM (LOX IMVI): 90.3%
growth at 0.1 µM (OVCAR-5): 101%
growth at 0.1 µM (Malme-3M): 97.1%
MIC (Aspergillus niger): 500 µg/mL (≈ 1130 µM)
growth at 0.1 µM (SF-539): 98.6%
growth at 0.1 µM (KM12): 72.8%
growth at 0.1 µM (TK-10): 115%
growth at 0.1 µM (MOLT-4): 48.2%
MIC (Streptococcus pyogenes): 125 µg/mL (≈ 283 µM)
growth at 0.1 µM (A549): 68.5%
growth at 0.1 µM (HT-29): 93.7%
growth at 0.1 µM (CAKI-1): 93.4%
growth at 0.1 µM (DU-145): 81.7%
growth at 0.1 µM (IGROV-1): 75.3%
growth at 0.1 µM (MDA-MB-435): 93.8%
growth at 0.1 µM (SK-OV-3): 101%
growth at 0.1 µM (MDA-MB-468): 74.8%
growth at 0.1 µM [2]: 70.7%
growth at 0.1 µM (SW-620): 97.2%
growth at 0.1 µM (786-0): 109%
growth at 0.1 µM (ACHN): 80.8%
growth at 0.1 µM (SF-268): 67.5%
growth at 0.1 µM (HL-60): 70.3%
MIC (Aspergillus clavatus): 1000 µg/mL (≈ 2260 µM)
growth inhibition (GI) [3]: 97%
MIC ([3]; Mycobacterium tuberculosis, H37Rv): 250 µg/mL (≈ 566 µM)
growth at 0.1 µM (OVCAR-4): 57.4%
growth at 0.1 µM (HCT-15): 86.5%
MIC (Staphylococcus aureus): 250 µg/mL (≈ 566 µM)
growth at 0.1 µM (SF-295): 89.6%
growth at 0.1 µM (M14): 99.6%
growth at 0.1 µM [4]: 90.5%
growth at 0.1 µM (MCF7): 76.7%
growth at 0.1 µM (A498): 78.5%
growth at 0.1 µM (SNB-19): 82%
growth at 0.1 µM (NCI-H522): 71.3%
growth at 0.1 µM (HOP-62): 97%
growth at 0.1 µM (NCI/ADR-RES): 89.2%
growth at 0.1 µM (K562): 83%

Reference: ChEMBL document CHEMBL2331210, “New 2-benzylsulfanyl-nicotinic acid based 1,3,4-oxadiazoles: their synthesis and biological evaluation” (2013)
